Experimental findings from patent EP1056778B1, “G PROTEIN-COUPLED RECEPTOR ANTAGONISTS” (priority 1998, dated 1999) are described below.

The assay addresses T1, CCKAR (Rattus norvegicus, UniProt P30551).
T1 construct: expressed in transfected cells; host or cells: CHO cells
T1 sequence (P30551 1-444): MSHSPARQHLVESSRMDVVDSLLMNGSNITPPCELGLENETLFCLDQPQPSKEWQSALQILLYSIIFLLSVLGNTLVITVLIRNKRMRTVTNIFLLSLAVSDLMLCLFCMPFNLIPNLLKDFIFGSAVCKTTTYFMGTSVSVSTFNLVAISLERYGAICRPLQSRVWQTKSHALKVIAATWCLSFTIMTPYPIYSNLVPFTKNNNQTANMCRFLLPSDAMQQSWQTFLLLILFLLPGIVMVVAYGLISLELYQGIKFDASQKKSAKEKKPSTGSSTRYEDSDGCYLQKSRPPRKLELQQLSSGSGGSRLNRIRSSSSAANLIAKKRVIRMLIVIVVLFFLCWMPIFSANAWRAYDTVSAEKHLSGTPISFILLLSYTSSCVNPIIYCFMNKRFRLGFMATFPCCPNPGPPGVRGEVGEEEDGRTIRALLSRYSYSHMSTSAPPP
Put plainly: Inhibition of CCK-8 evoked intracellular calcium release in CHO cells stably transfected with rat CCKAR. It is filed as cell-based. On the procedure:
The activity of peptides from the CCKAR transmembrane domain were tested in transfected CHO cells that stably express rat […] et al. (1997), J. Biol. Chem. 272: 14817-14824). Sulfated cholecystokinin octapeptide was the CCKAR agonist. Determination of intracellular calcium release was performed as described in example 1 above. None of CCKAR-derived peptides served as antagonists of chemokine receptors and none could inhibit HIV-1 infection. The activity of the antagonists in inhibiting signaling through the receptor was compared to the ability to prevent agonist binding (Table 4). Inhibition of signaling was assessed in CCK-8 evoked intracellular calcium release in FURA-2/AM treated CHO cells stably transfected with rat […], et al. (1997) J. Biol. Chem. 272:14817). Inhibition of ligand binding was measured with the use of a fluorescent agonist, rhodamine green CCK-8 (RG-CCK-8) and quantitative confocal laser scanning microscopy (Tarasova, et al. (1997) J. Biol. Chem. 272:14817). Peptides derived from the first, second, and sixth transmembrane domains inhibited CCK-induced signaling through the CCKAR receptor. […] Table 4. The activity of CCKAR-derived TM peptides in inhibition of CCK-8 -induced intracellular calcium release and RG-CCK-8 binding.
(Calcium flux is commonly read through the fluorescence of an indicator in the cells.)

Where a SMILES comes first, the peptide text is derived from it.

`CSCC[C@H](NC(=O)[C@H](CC(C)C)NC(=O)[C@H](CC(=O)O)NC(=O)[C@H](CO)NC(=O)[C@@H](NC(=O)[C@H](C)NC(=O)[C@H](CC(C)C)NC(=O)[C@H](CO)NC(=O)[C@H](CC(C)C)NC(=O)[C@H](CC(C)C)NC(=O)[C@@H](N)Cc1ccccc1)C(C)C)C(=O)N[C@@H](CC(C)C)C(=O)N[C@@H](CS)C(=O)N[C@@H](CC(C)C)C(=O)N[C@@H](Cc1ccccc1)C(=O)N[C@@H](CS)C(=O)N[C@@H](CCSC)C(=O)N1CCC[C@H]1C(=O)N[C@@H](Cc1ccccc1)C(=O)N[C@@H](CC(N)=O)C(=O)N[C@@H](CC(C)C)C(=O)N1CCC[C@H]1C(=O)O` [CCKAR-2-1] (H-FLLSLAVSDLMLCLFCMPFNLP-OH): the “Concentration, required for inhibition of signaling” value (CCK-8-induced intracellular calcium release, CHO cells with rat CCKAR) worked out at 2 µM. In addition, the “potency in inhibition of ligand signaling compared with binding” value (comparison of signaling and binding, Table 4) is given as “comparable potencies”.
